Like-named read-outs stand apart in the source and are kept apart here.
How the values were obtained:
[1] = Hydrolysis of Example 4 in EDTA-containing rat whole blood; assay type: in vitro ADME; settings: for Concentration: Example 4 incubated in rat whole blood at 37 degrees, HPLC-MS
[2] = Single dose oral bioavailability and pharmacokinetic study in Sprague Dawley rats; assay type: in vivo, Sprague Dawley rat; settings: for AUC(0-t) / Cmax / Tmax / half-life: Sprague Dawley (Crl:CD(SD)BR), rat, plasma, mean, after single oral 30 mg/kg of Example 1, label = analyte; for half-life: read-out: t½ (converted); for Course of plasma concentration over time: rats, after oral Example 1, 30 mg/kg, over 8 hours
Protocol: Animals are Used for the Study:
• Strain/Species: Sprague Dawley (Crl:CD®(SD)BR) Rat • Sex: Male and Female • Age at Receipt: 7-8 weeks • Weight Range: 225-300 g • Number of Animals on Study: 3 Males and 3 Females Preparation of Dosage Formulation
The suspension is prepared by placing the required amount of methylcellulose in deionized water in a glass container. The suspension are kept stirring with a magnetic stirrer until completion of daily dosing. The dose suspensions are prepared on the day of dosing for each test article group.
A total of 3 male and 3 female rats are dosed at 30 mg/kg. Blood samples are collected at 0.30 min, 1, 4 and 8 h after dosing. Plasma samples are analyzed to determine plasma concentrations of the Compound of Example 1, the Compound of Formula Q wherein X is —N(CH3)— and Y is —C(═O), and the Compound of Formula Q wherein X is —N(H)— and Y is —C(═O). The pharmacokinetic profile is determined using WinNonlin.
Animals are anesthetized with isoflurane, and whole blood (˜0.5 mL/time point) is collected from the orbital sinus utilizing a glass capillary tube on the first day of treatment at the following times: 0.30 min, 1, 4 and 8 h after dosing. Whole blood (˜0.5 mL) is collected into chilled plastic tubes containing sodium heparin as supplied by the manufacturer. The blood collection tubes are mixed several times by manual inversion or gentle vortexing and stored on wet ice until centrifugation. The blood is centrifuged (˜2700 g, ˜10 min, ˜5° C.). Plasma is transferred with disposable plastic pipettes to plastic vials and stored at approximately −70° C. until analyzed.

dopamine receptors = test: Step-down latency test; assay type: in vivo; settings: mice; oral; tests at 120, 180, 240 and 360 minutes; FIG. 2
Protocol: Drugs that antagonize dopamine receptors in the brain slow motor behavior and can induce a cataleptic state. This activity can be assessed in mice using a simple step down latency test. In this test, mice are held by the tail, and the rodents forepaws are placed on a rod and its hindpaws placed on the bench top. The time for forepaws to step down from the rod is then measured. A maximum of 2 min is allowed at which time the animal is taken away from the rod and returned to the home cage. The compound of Example 1 or haloperidol (used as a positive control) is administered orally 120 minutes before the first test. Step down latency tests are conducted at 120, 180, 240, and 360 minutes after the administration of the compound of Example 1 or haloperidol. After each test mice are returned to their cages. The results are show in FIG. 2.

5-HT2 receptor = test: DOI-induced head twitch test in mice; assay type: in vivo; settings: oral
Source text: When administered to mice, it produces a behavioral profile associated with frequent head twitches. The frequency of these head twitches during a predetermined period of time can be taken as an estimate of 5-HT2 receptor agonism in the brain. Conversely, this behavioral assay can be used to determine 5-HT2 receptor antagonism in the brain by administering the DOI with or without an antagonist and recording the reduction in DOI-induced head twitches after the administration of the antagonist.
The method of Darmani et al., Pharmacol Biochem Behav. (1990) 36:901-906 (the contents of which are incorporated by reference in their entirety) is used with some modifications. (±)-DOI HCl is injected subcutaneously and the mice are immediately placed in a conventional plastic cage. The number of head twitches is counted during 6 min, beginning 1 min after DOI administration. The compound of Example 1 is administered orally 0.5 hr before the injection of DOI.

SERT = SERT (Homo sapiens, UniProt P31645); test: biochemical
Sequence of SERT (P31645 whole entry): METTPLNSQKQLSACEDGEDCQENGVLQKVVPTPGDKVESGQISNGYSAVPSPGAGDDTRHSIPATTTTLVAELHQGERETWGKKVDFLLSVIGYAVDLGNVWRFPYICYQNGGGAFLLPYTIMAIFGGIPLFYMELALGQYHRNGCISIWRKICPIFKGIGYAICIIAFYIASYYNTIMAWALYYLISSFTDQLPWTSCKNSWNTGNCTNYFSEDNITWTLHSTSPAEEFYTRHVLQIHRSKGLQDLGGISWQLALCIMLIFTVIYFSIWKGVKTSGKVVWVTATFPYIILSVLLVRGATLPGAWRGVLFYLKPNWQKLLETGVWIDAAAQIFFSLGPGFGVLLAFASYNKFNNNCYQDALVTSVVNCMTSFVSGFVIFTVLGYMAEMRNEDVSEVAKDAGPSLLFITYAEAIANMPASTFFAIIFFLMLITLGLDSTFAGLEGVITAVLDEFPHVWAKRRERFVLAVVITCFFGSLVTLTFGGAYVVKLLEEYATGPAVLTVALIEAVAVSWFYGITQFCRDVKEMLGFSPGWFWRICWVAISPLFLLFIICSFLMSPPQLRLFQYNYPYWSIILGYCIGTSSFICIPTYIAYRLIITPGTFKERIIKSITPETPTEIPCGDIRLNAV

[3] = biological target: T1, serotonin reuptake transport (SERT) (Homo sapiens, UniProt P31645); test: Inhibition of serotonin uptake in a human platelet assay using tritiated serotonin; assay type: cell-based
T1 construct: endogenous in cells; host or cells: human platelets
T1 sequence (P31645 whole entry): as above

Concentration ([1]; 5 min) [µM]	Concentration ([1]; 10 min) [µM]	Concentration ([1]; 15 min) [µM]	Concentration ([1]; 30 min) [µM]	Concentration ([1]; 60 min) [µM]	Concentration ([1]; 90 min) [µM]	AUC(0-t) ([2]; female rats) [ng·h/mL]	Cmax ([2]; female rats) [ng/mL]	Tmax ([2]; female rats) [h]	half-life ([2]; female rats) [h]	AUC(0-t) ([2]; male rats) [ng·h/mL]	Cmax ([2]; male rats) [ng/mL]	Tmax ([2]; male rats) [h]	half-life ([2]; male rats) [h]	Course of plasma concentration over time [2]	SMILES	further results
24.92	18.51	9.21	7.06	2.74	1.75	–	–	–	–	–	–	–	–	–	CCCC(=O)OC(CCCN1CC[C@H]2[C@@H](C1)c1cccc3c1N2CCN3C)c1ccc(F)cc1 (stereo partly shown) [Example 4]	Concentration ([1]; 0 min): 52.84 µM; Cleavage of the ester in blood ([1]; rat whole blood, during 90 minutes): steadily cleaved back to the compound of Example 1
–	–	–	–	–	–	71	11.8	1	23.4	54.5	4.85	0.75	12.1	maintained over 8 hours	CN1CCN2c3c(cccc31)[C@@H]1CN(CCCC(=O)c3ccc(F)cc3)CC[C@@H]12	–
–	–	–	–	–	–	89.7	12.8	5.33	–	37.4	5.84	1	17.8	maintained over 8 hours	O=C(CCCN1CC[C@H]2[C@@H](C1)c1cccc3c1N2CCN3)c1ccc(F)cc1	–
8.43	12.02	13.42	19.21	24.66	33.31	767	144	3.33	11.6	421	91.6	0.83	5.83	generally decreases over time	CN1CCN2c3c(cccc31)[C@@H]1CN(CCCC(O)c3ccc(F)cc3)CC[C@@H]12 (stereo partly shown) [Example 1]	Effect on step down latency (dopamine receptors): significantly and dose dependently increased step down latency; IC50 for reducing DOI-induced head twitches (5-HT2 receptor; 0.5 hr before DOI, twitches counted during 6 min): 0.31 mg/kg; Effect on DOI-induced head twitches (5-HT2 receptor; before DOI, FIG. 1): significantly and dose dependently reduced head twitches; Ki (SERT): 71 nM; Ki [3]: 1500 nM; SERT inhibitory activity ([3]; imipramine as reference, compared with the corresponding keto compound of Formula Q): potent SERT inhibitory activity

— US9371324B2, “Substituted pyrido[3′,4′:4,5]pyrrolo[1,2,3-de]quinoxalines for the treatment of nervous system disorders” (INTRA-CELLULAR THERAPIES, INC., priority 2010, dated 2016)
